Reference: the supplement of paper PMC10307832

Assays:
Experiment in all cases: relative viability (nuclei count vs DMSO), 5 days (fraction); higher = more cells survive
[1] = compound: CC(O)(CS(=O)(=O)c1ccc(F)cc1)C(=O)Nc1ccc(C#N)c(C(F)(F)F)c1 [Bicalutamide] + CC(=O)c1c(C)c2cnc(Nc3ccc(N4CCNCC4)cn3)nc2n(C2CCCC2)c1=O [Palbociclib] (partner 0.5 µM)
Summary of the method: (§1)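 Relative viability divides the nuclei count in treated wells by that in vehicle wells. Lung cancer cell lines were seeded in 1536-well plates, dosed by pin tool the next day, and fixed and stained after 5 days in one step with final 0.05% Triton X-100, 1% formaldehyde and 1 ug/ml Hoechst. Dosing was a single drug or a fixed anchor-drug dose plus five library-drug doses (not always all listed) in √10 steps, and values are medians of duplicate plates imaged at 4×.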

[2] = compound: C(C(=O)C(=O)O)Br [Bromopyruvate] + CC(C)C[C@H](NC(=O)[C@H](Cc1ccccc1)NC(=O)c1cnccn1)B(O)O [Bortezomib] (partner 0.002 µM)
Summary of the method: as §1

[3] = compound: C(C(=O)C(=O)O)Br [Bromopyruvate] + C[C@]1(O)C[C@@H](c2nc(-c3ccc4ccc(-c5ccccc5)nc4c3)c3c(N)nccn32)C1 [Linsitinib] (partner 1 µM)
Summary of the method: as §1

Bicalutamide + Dasatinib = compound: CC(O)(CS(=O)(=O)c1ccc(F)cc1)C(=O)Nc1ccc(C#N)c(C(F)(F)F)c1 [Bicalutamide] + Cc1nc(Nc2ncc(C(=O)Nc3c(C)cccc3Cl)s2)cc(N2CCN(CCO)CC2)n1 [Dasatinib] (partner 0.075 µM)
Summary of the method: as §1

| Cell Line | relative viability ([1]; first compound 0.08 µM) | relative viability ([1]; first compound 0.253 µM) | relative viability ([1]; first compound 0.8 µM) | relative viability ([1]; first compound 2.53 µM) | relative viability ([2]; first compound 1 µM) | relative viability ([2]; first compound 3.162 µM) | relative viability ([2]; first compound 10 µM) | relative viability ([2]; first compound 31.62 µM) | relative viability ([2]; first compound 100 µM) | relative viability ([3]; first compound 1 µM) | relative viability ([3]; first compound 3.162 µM) | relative viability ([3]; first compound 10 µM) | relative viability ([3]; first compound 31.62 µM) | relative viability ([3]; first compound 100 µM) | relative viability (Bicalutamide + Dasatinib; first compound 0.08 µM) | relative viability (Bicalutamide + Dasatinib; first compound 0.253 µM) | relative viability (Bicalutamide + Dasatinib; first compound 0.8 µM) | relative viability (Bicalutamide + Dasatinib; first compound 2.53 µM) |
| --- | --- | --- | --- | --- | --- | --- | --- | --- | --- | --- | --- | --- | --- | --- | --- | --- | --- | --- |
| NCI-H2228 | 0.797 | 0.775 | 0.745 | 0.779 | 0.857 | 1.15 | 1.36 | 0.817 | 0.946 | 0.81 | 0.837 | 0.693 | 0.535 | 0.505 | 0.476 | 0.479 | 0.522 | 0.55 |
| NCI-H2347 | 0.473 | 0.468 | 0.446 | 0.399 | 0.862 | 1.19 | 0.893 | 0.723 | 1.08 | 0.995 | 0.989 | 1.21 | 0.756 | 1.08 | 0.318 | 0.307 | 0.299 | 0.308 |
| NCI-H2405 | 0.555 | 0.506 | 0.581 | 0.486 | 1.02 | 0.992 | 1.19 | 0.954 | 1.04 | 0.938 | 0.948 | 1.11 | 0.727 | 0.907 | 0.23 | 0.199 | 0.235 | 0.154 |
| NCI-H3122 | 0.193 | 0.183 | 0.201 | 0.181 | 1.02 | 1.01 | 1.07 | 0.971 | 1.02 | 1.02 | 1.02 | 1.03 | 0.987 | 0.941 | 0.922 | 0.791 | 0.938 | 0.889 |
| PC-3 [JPC-3] | 0.556 | 0.576 | 0.567 | 0.552 | 0.796 | 0.74 | 0.832 | 0.785 | 0.856 | 1.02 | 0.975 | 0.943 | 0.914 | 1.01 | 1.04 | 0.946 | 1.05 | 0.947 |
| PC-14 | 0.583 | 0.466 | 0.677 | 0.422 | 0.958 | 0.873 | 0.883 | 1 | 0.912 | 1.03 | 1.01 | 0.938 | 0.944 | 1.04 | 0.263 | 0.223 | 0.264 | 0.18 |
| RERF-LC-KJ | 1.08 | 1.05 | 1.17 | 0.865 | 1.09 | 1.14 | 1 | 1.18 | 1.29 | 0.885 | 0.935 | 0.952 | 0.906 | 0.933 | 0.91 | 0.814 | 1.04 | 0.694 |
| SK-LU-1 | 0.403 | 0.452 | 0.43 | 0.378 | 1.44 | 1.01 | 1.82 | 0.987 | 1.27 | 1.02 | 1.09 | 1.12 | 0.964 | 1.09 | 0.175 | 0.206 | 0.177 | 0.169 |
| SW 1573 | 0.418 | 0.451 | 0.457 | 0.351 | 0.935 | 1.02 | 1.18 | 1.08 | 0.392 | 0.839 | 0.842 | 0.794 | 0.776 | 0.651 | 0.525 | – | 0.683 | 0.275 |
